In patent publication US10668040B2, “Treatment of urea cycle disorders in neonates and infants” (Horizon Therapeutics, LLC, priority 2017, dated 2020):

Tested on: UCD patients
Assay: Example 3: TEAEs, serious and non-serious adverse events
Type: in vivo
Text: Sixteen newborn infants aged 0 to 27 days, and 10 infants and toddlers aged 28 days to 23 months received RAVICTI Oral Liquid administered just prior to breastfeeding or intake of formula or food. The recommended dosing regimen was 3-6 times per day depending on feeding schedule.
Number of Subjects with Treatment-Emergent Adverse Events (TEAEs), Serious TEAEs, Deaths, and Discontinuations Due to TEAEs
An adverse event (AE) is any untoward medical occurrence, whether or not the event is considered related to the study drug. A serious AE is any AE that: results in death; is life threatening; requires hospitalization or prolongation of existing hospitalization; results in disability/incapacity; is a congenital anomaly/birth defect; is an important medical event. TEAEs are defined as AEs with an onset date on or after the first dose of study medication until study discontinuation. The Investigator assessed the causal relationship of each TEAE to the study drug as not related, possibly related, or probably related. From the first dose of study treatment through 30 days after the final dose (mean [SD] duration of treatment was 9.13 [6.838] months).

[1] = Non-serious adverse events, Age 0 to <2 Months
[2] = Non-serious adverse events, Age 2 Months to <2 Years
[3] = aged 0 to 2 months, 16 analyzed
[4] = aged 2 months and up to 2 years, 10 analyzed

For O=C(CCCc1ccccc1)OCC(COC(=O)CCCc1ccccc1)OC(=O)CCCc1ccccc1 [RAVICTI, benzenebutanoic acid, 1′,1″-(1,2,3-propanetriyl) ester], the “Irritability, Occurrences (all)” value [1] was 1, the “Lethargy, Occurrences (all)” value [1] was 1 and the “Leukocytosis, Occurrences (all)” value [1] was 1. For the same compound, the “Lower respiratory tract infection, Occurrences (all)” value [1] was 1, the “Lymphocytosis, Occurrences (all)” value [1] was 1 and the “Medical device site haemorrhage, Occurrences (all)” value [1] was 1. The “Metabolic acidosis, Occurrences (all)” value [1] was 2, the “Microcytic anaemia, Occurrences (all)” value [1] was 1 and the “Musculoskeletal and connective tissue Disorders (Torticollis), Occurrences (all)” value [1] was 1. The “Nail ridging, Occurrences (all)” value [1] was 0, the “Nasal congestion, Occurrences (all)” value [1] was 2 and the “Nasopharyngitis, Occurrences (all)” value [1] was 7. For the same compound, the “Nephrolithiasis, Occurrences (all)” value [1] was 1, the “Neutropenia, Occurrences (all)” value [1] was 1 and the “Ocular hyperaemia, Occurrences (all)” value [1] was 1. The “Oral candidiasis, Occurrences (all)” value [1] was 2, the “Oropharyngeal pain, Occurrences (all)” value [1] was 2 and the “Otitis media acute, Occurrences (all)” value [1] was 1. For the same compound, the “Otitis media, Occurrences (all)” value [1] was 1, the “Pharyngitis, Occurrences (all)” value [1] was 0 and the “Plagiocephaly, Occurrences (all)” value [1] was 2. For the same compound, the “Platelet count increased, Occurrences (all)” value [1] was 1, the “Pneumonia, Occurrences (all)” value [1] was 0 and the “Pneumothorax, Occurrences (all)” value [1] was 1. For the same compound, the “Post-tussive vomiting, Occurrences (all)” value [1] was 1, the “Protein deficiency, Occurrences (all)” value [1] was 2 and the “Pyrexia, Occurrences (all)” value [1] was 3. The “Rash, Occurrences (all)” value [1] was 6, the “Red man syndrome, Occurrences (all)” value [1] was 1 and the “Respiratory disorder, Occurrences (all)” value [1] was 0. The “Respiratory syncytial virus infection, Occurrences (all)” value [1] was 1, the “Rhinorrhoea, Occurrences (all)” value [1] was 0 and the “Rhinovirus infection, Occurrences (all)” value [1] was 1. The “Seborrhoeic dermatitis, Occurrences (all)” value [1] was 2, the “Sinusitis, Occurrences (all)” value [1] was 1 and the “Stoma site reaction, Occurrences (all)” value [1] was 1. The “Tachypnoea, Occurrences (all)” value [1] was 1, the “Teething, Occurrences (all)” value [1] was 3 and the “Thrombocytopenia, Occurrences (all)” value [1] was 2. For the same compound, the “Thrombocytosis, Occurrences (all)” value [1] was 2, the “Tibia fracture, Occurrences (all)” value [1] was 0 and the “Transaminases increased, Occurrences (all)” value [1] was 1. For the same compound, the “Tremor, Occurrences (all)” value [1] was 1, the “Upper respiratory tract infection, Occurrences (all)” value [1] was 7 and the “Urinary tract infection, Occurrences (all)” value [1] was 2. The “Use of accessory respiratory muscles, Occurrences (all)” value [1] was 1, the “Vascular disorders (Venous thrombosis limb), Occurrences (all)” value [1] was 0 and the “Vesicoureteric reflux, Occurrences (all)” value [1] was 0. For the same compound, the “Viral infection, Occurrences (all)” value [1] was 1, the “Vomiting, Occurrences (all)” value [1] was 12 and the “Weight decreased, Occurrences (all)” value [1] was 1. The “Agitation, Occurrences (all)” value [2] was 0, the “Alanine aminotransferase increased, Occurrences (all)” value [2] was 0 and the “Amino acid level decreased, Occurrences (all)” value [2] was 1. For the same compound, the “Amino acid level increased, Occurrences (all)” value [2] was 0, the “Ammonia increased, Occurrences (all)” value [2] was 1 and the “Anaemia, Occurrences (all)” value [2] was 1. The “Angular cheilitis, Occurrences (all)” value [2] was 0, the “Anion gap increased, Occurrences (all)” value [2] was 0 and the “Apnoea, Occurrences (all)” value [2] was 1. For the same compound, the “Arthropod bite, Occurrences (all)” value [2] was 0, the “Aspartate aminotransferase increased, Occurrences (all)” value [2] was 0 and the “Blood bicarbonate decreased, Occurrences (all)” value [2] was 0. For the same compound, the “Blood urea decreased, Occurrences (all)” value [2] was 0, the “Body height below normal, Occurrences (all)” value [2] was 0 and the “Candida infection, Occurrences (all)” value [2] was 0. For the same compound, the “Carbon dioxide decreased, Occurrences (all)” value [2] was 1, the “Cardiac disorders (Tachycardia), Occurrences (all)” value [2] was 0 and the “Catheter site rash, Occurrences (all)” value [2] was 0. The “Conjunctivitis, Occurrences (all)” value [2] was 1, the “Constipation, Occurrences (all)” value [2] was 2 and the “Cough, Occurrences (all)” value [2] was 2. For the same compound, the “Croup infectious, Occurrences (all)” value [2] was 1, the “Dacryostenosis congenital, Occurrences (all)” value [2] was 1 and the “Decreased appetite, Occurrences (all)” value [2] was 0. The “Dehydration, Occurrences (all)” value [2] was 0, the “Dermatitis diaper, Occurrences (all)” value [2] was 1 and the “Device occlusion, Occurrences (all)” value [2] was 0. The “Diarrhoea, Occurrences (all)” value [2] was 1, the “Drug withdrawal syndrome, Occurrences (all)” value [2] was 0 and the “Dysphagia, Occurrences (all)” value [2] was 0. The “Ear and labyrinth disorders (Excessive cerumen production), Occurrences (all)” value [2] was 1, the “Ear infection, Occurrences (all)” value [2] was 0 and the “Eczema, Occurrences (all)” value [2] was 1. The “Eye discharge, Occurrences (all)” value [2] was 0, the “Feeding disorder of infancy or early childhood, Occurrences (all)” value [2] was 0 and the “Flatulence, Occurrences (all)” value [2] was 0. For the same compound, the “Gamma-glutamyltransferase increased, Occurrences (all)” value [2] was 0, the “Gastroenteritis, Occurrences (all)” value [2] was 2 and the “Gastrointestinal viral infection, Occurrences (all)” value [2] was 0. The “Gastrooesophageal reflux disease, Occurrences (all)” value [2] was 0, the “Gross motor delay, Occurrences (all)” value [2] was 1 and the “Hepatic enzyme increased, Occurrences (all)” value [2] was 0. For the same compound, the “Hepatobiliary disorders (Hepatic calcification), Occurrences (all)” value [2] was 0, the “Hyperammonaemia, Occurrences (all)” value [2] was 0 and the “Hypophagia, Occurrences (all)” value [2] was 3. The “Immune System Disorders (Seasonal allergy), Occurrences (all)” value [2] was 1, the “Irritability, Occurrences (all)” value [2] was 0 and the “Lethargy, Occurrences (all)” value [2] was 0. The “Leukocytosis, Occurrences (all)” value [2] was 0, the “Lower respiratory tract infection, Occurrences (all)” value [2] was 0 and the “Lymphocytosis, Occurrences (all)” value [2] was 0. The “Medical device site haemorrhage, Occurrences (all)” value [2] was 0, the “Metabolic acidosis, Occurrences (all)” value [2] was 2 and the “Microcytic anaemia, Occurrences (all)” value [2] was 0. The “Musculoskeletal and connective tissue Disorders (Torticollis), Occurrences (all)” value [2] was 0, the “Nail ridging, Occurrences (all)” value [2] was 1 and the “Nasal congestion, Occurrences (all)” value [2] was 1. The “Nasopharyngitis, Occurrences (all)” value [2] was 2, the “Nephrolithiasis, Occurrences (all)” value [2] was 0 and the “Neutropenia, Occurrences (all)” value [2] was 0. For the same compound, the “Ocular hyperaemia, Occurrences (all)” value [2] was 0, the “Oral candidiasis, Occurrences (all)” value [2] was 0 and the “Oropharyngeal pain, Occurrences (all)” value [2] was 0. For the same compound, the “Otitis media acute, Occurrences (all)” value [2] was 0, the “Otitis media, Occurrences (all)” value [2] was 2 and the “Pharyngitis, Occurrences (all)” value [2] was 1. For the same compound, the “Plagiocephaly, Occurrences (all)” value [2] was 0, the “Platelet count increased, Occurrences (all)” value [2] was 0 and the “Pneumonia, Occurrences (all)” value [2] was 1. For the same compound, the “Pneumothorax, Occurrences (all)” value [2] was 0, the “Post-tussive vomiting, Occurrences (all)” value [2] was 0 and the “Protein deficiency, Occurrences (all)” value [2] was 0. The “Pyrexia, Occurrences (all)” value [2] was 2, the “Rash, Occurrences (all)” value [2] was 3 and the “Red man syndrome, Occurrences (all)” value [2] was 0. For the same compound, the “Respiratory disorder, Occurrences (all)” value [2] was 1, the “Rhinorrhoea, Occurrences (all)” value [2] was 1 and the “Seborrhoeic dermatitis, Occurrences (all)” value [2] was 1. For the same compound, the “Sinusitis, Occurrences (all)” value [2] was 2, the “Stoma site reaction, Occurrences (all)” value [2] was 1 and the “Tachypnoea, Occurrences (all)” value [2] was 0. For the same compound, the “Teething, Occurrences (all)” value [2] was 1, the “Thrombocytopenia, Occurrences (all)” value [2] was 0 and the “Thrombocytosis, Occurrences (all)” value [2] was 0. For the same compound, the “Tibia fracture, Occurrences (all)” value [2] was 1, the “Transaminases increased, Occurrences (all)” value [2] was 0 and the “Tremor, Occurrences (all)” value [2] was 0. The “Upper respiratory tract infection, Occurrences (all)” value [2] was 6, the “Urinary tract infection, Occurrences (all)” value [2] was 1 and the “Use of accessory respiratory muscles, Occurrences (all)” value [2] was 0. For the same compound, the “Vascular disorders (Venous thrombosis limb), Occurrences (all)” value [2] was 2, the “Vesicoureteric reflux, Occurrences (all)” value [2] was 1 and the “Viral infection, Occurrences (all)” value [2] was 1. For the same compound, the “Vomiting, Occurrences (all)” value [2] was 5, the “Weight decreased, Occurrences (all)” value [2] was 0 and the “Subjects with TEAE leading to study discontinuation” value [3] was “one”. The “Subjects with fatal outcome TEAE” value [3] was “no fatal outcome TEAEs”, the “Subjects with one or more TEAE” value [3] was 16 subjects and the “Subjects with one or more related TEAE” value [3] was “Ten”. For the same compound, the “Subjects with one or more serious TEAE” value [3] was 11 subjects, the “Subjects with serious related TEAEs” value [3] was “no subjects” and the “Subjects with TEAE leading to study discontinuation” value [4] was “one”. The “Subjects with fatal outcome TEAE” value [4] was “One”, the “Subjects with one or more TEAE” value [4] was 10 subjects and the “Subjects with one or more related TEAE” value [4] was “Four”. The “Subjects with one or more serious TEAE” value [4] was 6 subjects, the “Subjects with serious related TEAEs” value [4] was “no subjects” and the “Respiratory syncytial virus infection, Occurrences (all)” value (in vivo) was 0. The “Respiratory syncytial virus infection, Subjects Affected/Exposed” value (in vivo) was 0/10 (0.00%), the “Rhinovirus infection, Occurrences (all)” value (in vivo) was 0 and the “Rhinovirus infection, Subjects Affected/Exposed” value (in vivo) was 0/10 (0.00%). For the same compound, the “Serious AE Respiratory syncytial virus infection: Occurrences causally related to treatment/all” value (in vivo) was 0/0, the “Serious AE Respiratory syncytial virus infection: Subjects Affected/Exposed” value (in vivo) was 0/10 (0.00%) and the “Serious AE Rhinovirus infection: Occurrences causally related to treatment/all” value (in vivo) was 0/1. The “Serious AE Rhinovirus infection: Subjects Affected/Exposed” value (in vivo) was 1/10 (10.00%).
